Values quoted from earlier work as cited in patent US7166295B1, “Methods of treatment and diagnostic visualization, particularly in cancer” (priority 1995, dated 2007).

Details: incorporated in liposomes, injected intraperitoneally into mice; compared with injection of the respective free drug

In the case of `CCCCCCCCCCCCCCCC(=O)OCC(COP(=O)(O)OCC1OC(n2cc(C)c(=O)[nH]c2=O)CC1N=[N+]=[N-])OC(=O)CCCCCCCCCCCCCCC` (centres unmarked) [DPP-AZT, Dipalmitoyl-phosphatidyl-3′-Azido-3′-deoxythymidine], the “concentration of drug in the plasma, spleen and lymphoid tissue relative to the free drug” value is given as “increased concentration of drug in the plasma, spleen and lymphoid tissue”.

For `CCCCCCCC/C=C\CCCCCCCC(=O)OCC(COP(=O)(O)OC[C@@H]1CCC(n2ccc(N)nc2=O)O1)OC(=O)CCCCCCC/C=C\CCCCCCCC` (some centres unmarked) [DOP-ddc, Dioleoyl-phospathidyl-ddc], the “concentration of drug in the plasma, spleen and lymphoid tissue relative to the free drug” value is listed as “increased concentration of drug in the plasma, spleen and lymphoid tissue”.
